The source made the active and inactive calls.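 Rule for the calls: active = significant rise in GFP-LC3 puncta area per cell versus the same autophagy-inducer co-treatment given without compound; inactive = the rest.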
Tested on: HeLa GFP-LC3 puncta imaging, 4 h
Experiment: autophagy induction assessed by green fluorescent protein-tagged microtubule-associated protein 1 light chain 3 foci, microscopy imaging, HeLa reporter line expressing fluorescent MAP1 light chain 3, co-treatment with rapamycin or Torin1 (AID 1963957)
Conditions: for puncta normalized to Torin1: at 20 µM, active compounds read high

EC50 (no co-treatment) [µM]	EC50 (with Rapamycin) [µM]	EC50 (with Torin1) [µM]	Structure (SMILES)	puncta normalized to Torin1 (with Rapamycin)	puncta normalized to Torin1 (no co-treatment)	puncta normalized to Torin1 (with Torin1)
12	11.5	29.3	CCC(C)(C)C(=O)C(=O)N1CCCC[C@H]1C(=O)N[C@H](CCc1ccc(OC)cc1)C(=O)N1[C@@H]2CC[C@H]1CC(Nc1nc(NCCc3sc(N)nc3C)nc(N3CCn4ncnc4C3)n1)C2 (stereo partly specified)	–	–	–
–	–	–	CO[C@H]1C[C@@H]2CC[C@@H](C)[C@@](O)(O2)C(=O)C(=O)N2CCCC[C@H]2C(=O)O[C@H]([C@H](C)C[C@@H]2CC[C@@H](O)[C@H](OC)C2)CC(=O)[C@H](C)/C=C(\C)[C@@H](O)[C@@H](OC)C(=O)[C@H](C)C[C@H](C)\C=C/C=C/C=C/1C	0.39	–	–
–	–	–	CS(C)=O	–	0 (inactive)	–
–	–	–	CCC(C)(C)C(=O)C(=O)N1CCCC[C@H]1C(=O)N[C@H](CCc1ccc(OC)cc1)C(=O)N1[C@@H]2CC[C@H]1CC(Nc1nc(NCCc3sc(N)nc3C)nc(N(C)Cc3nnc4n3CCC4)n1)C2 (stereo partly specified)	0.68 (inactive)	0.13 (inactive)	0.98 (inactive)
–	–	–	CCC(C)(C)C(=O)C(=O)N1CCCC[C@H]1C(=O)N[C@H](CCc1ccc(OC)cc1)C(=O)N1CC[C@H](Nc2nc(NCCc3sc(N)nc3C)nc(N(C)Cc3nnc4n3CCC4)n2)C1	0.32 (inactive)	-0.05 (inactive)	0.72 (inactive)
–	–	–	CCC(C)(C)C(=O)C(=O)N1CCCC[C@H]1C(=O)N[C@H](CCc1ccc(OC)cc1)C(=O)N1CC(Nc2nc(NCCc3sc(N)nc3C)nc(NCCn3cnc4ccccc43)n2)C1	0.85	0.06 (inactive)	1.47 (inactive)
–	–	–	CCC(=O)N1CCN(c2ccc(-n3c(=O)ccc4cnc5ccc(-c6cnc7ccccc7c6)cc5c43)cc2C(F)(F)F)CC1	–	–	1
–	–	–	CCC(C)(C)C(=O)C(=O)N1CCCC[C@H]1C(=O)N[C@H](CCc1ccc(OC)cc1)C(=O)N1[C@@H]2CC[C@H]1CC(Nc1nc(NCCc3sc(N)nc3C)nc(NCc3ccnc(CO)c3)n1)C2 (stereo partly specified)	1.02	0.14 (inactive)	1.59
–	–	–	CCC(C)(C)C(=O)C(=O)N1CCCC[C@H]1C(=O)N[C@H](CCc1ccc(OC)cc1)C(=O)N1[C@@H]2CC[C@H]1CC(Nc1nc(NCCc3sc(N)nc3C)nc(NCCn3cnc4ccccc43)n1)C2 (stereo partly specified)	1.54	0.49	2.17
